In PMC7002685, “Inhibition of vascular calcification by inositol phosphates derivatized with ethylene glycol oligomers” (Nature Communications, 2020):
Where “and” joins values, the source holds several entries; their conditions need not be identical. Identical values can stand only once.

Test system: transformation of CPP1 to CPP2 in pooled human serum
Test: In vitro serum calcification propensity (T50) screening assay
Format: biochemical
Set-up: key to T50: T50 in minutes (time to 50% CPP phase transition)
Conditions: for activity/unit mass: mean c350 x mw (Na salt); for concentration upon which a T50 of 350 min is reached (c350), mean: mean of n experiments; for concentration upon which a T50 of 350 min is reached (c350), single experiment: one value per experiment (lab journal reference E05-E40); for Concentration at T50 = 350 min mean ± s.d. (n) (c350): pooled human serum, 10 mM calcium, 6 mM phosphate, 37 °C
Method: The compounds were ranked for calcification inhibition activity using a nanoparticle-based test, developed for risk stratification, which measures the propensity for calcification in patient serum. […] The time, after which 50% of CPP phase transition occurred (T50), was assessed by time-resolved spectrophotometry at 550 nm (Supplementary Fig. 1a).
The screening assay was performed as described previously. In brief, pooled human serum (H4522, Sigma-Aldrich) stored at −20 °C was thawed at 37 °C, centrifuged (10,000 × g, and 4 °C, 30 min) (5427R, Eppendorf, Switzerland), and sterile filtered (0.22 μm filter, Millipore, Merck KGaA) to remove potential cryoprecipitates (cleared human serum). The calcium solution was 40 mM CaCl2 (102382, Merck KGaA) in HBS, pH 7.4 (RT) (100 mM HEPES (H3375, Sigma-Aldrich) and 140 mM NaCl (1734712, Fisher Scientific, Hampton, NH, USA)). […] All salt solutions and buffers were double sterile filtered (0.22 µm) and pre-warmed to 37 °C prior to use. […] The plate was sealed with an adhesive film and the absorption at 550 nm was measured every 3 min with 1 min in-between shaking for a total of 300 cycles at 37 °C using the infinite M200 microplate reader (Tecan, Männedorf, Switzerland). An A550 vs. time graph was generated and T50 (min) (time at half-maximum transition from CPP1 to CPP2) values were derived by sigmoidal curve fit using Prism 8 (nonlinear regression in the log(agonist) vs. response–variable slope (four parameter mode) using the robust fit fitting method, GraphPad Software, San Diego, CA, USA). Activities between compounds were compared by generating a T50 (min) vs. concentration (µM) graph, calculating nonlinear regression and deriving the concentration required to delay T50 to 350 min (c350) using a standard equation for the dose–response curve, Eq. (1), whereby x = [compound], y = time (min), bottom = baseline response, top = maximum response, T50 = [drug] that leads to half-maximum response, and the hill slope is a factor that describes the steepness of the curve.1 y= bottom+top - bottom/1+T50/x^hillslope.

[1] = concentration 1 μM, one value per experiment
[2] = concentration 3 μM, one value per experiment
[3] = concentration 10 μM, one value per experiment
[4] = concentration 15 μM, one value per experiment
[5] = concentration 30 μM, one value per experiment
[6] = concentration 50 μM, one value per experiment
[7] = concentration 100 μM, one value per experiment

| Molecule | T50 [1] | T50 [2] | T50 (concentration 5 μM, one value per experiment) | T50 [3] | T50 [4] | T50 [5] | activity/unit mass | concentration upon which a T50 of 350 min is reached (c350), mean | concentration upon which a T50 of 350 min is reached (c350), single experiment | Concentration at T50 = 350 min mean ± s.d. (n) (c350) | T50 [6] | T50 (1 µM, individual experiments, Fig. 2a) | T50 (3 µM, individual experiments, Fig. 2a) | T50 (10 µM, individual experiments, Fig. 2a) | T50 (30 µM, individual experiments, Fig. 2a) | T50 (50 µM, individual experiments, Fig. 2a) | T50 (100 µM, individual experiments, Fig. 2a) | T50 [7] |
| --- | --- | --- | --- | --- | --- | --- | --- | --- | --- | --- | --- | --- | --- | --- | --- | --- | --- | --- |
| CC(O)(P(=O)(O)O)P(=O)(O)O [Etidronate, etidronate] | 222.567 and 215.333 and 215.167 | 248.167 and 245.7 and 237.9 | 290 and 263.6 and 286.233 | 321.233 and 361.6 | 433.033 and 458.567 | 729.533 | 2.61 mg/L | 10.5 µM | 9.9 µM and 11.5 µM and 11.3 µM and 9.1 µM | 10.5 ± 1.1 (4) µM and 2.6 ± 0.3 (4) mg/L |  |  |  |  |  |  |  |  |
| O=P(O)(O)O[C@@H]1[C@@H](O)[C@@H](OP(=O)(O)O)[C@@H](O)[C@H](O)[C@H]1O [IP2, myo-Inositol-2,4-diphosphate] | 228.333 and 230.233 and 205.967 | 236.4 and 226.467 and 221.933 |  | 274.433 and 257.367 and 241.267 |  | 358.8 and 323.1 and 304.6 |  | 35.0 µM | 27.3 µM and 35.1 µM and 42.7 µM | 35.0 ± 7.7 (3) µM and 15.0 ± 3.3 (3) mg/L | 407.867 and 425.367 and 375.7 |  |  |  |  |  |  |  |
| O=P(O)(O)O[C@@H]1[C@H](O)[C@H](O)[C@@H](OP(=O)(O)O)[C@H](OP(=O)(O)O)[C@H]1O [IP3, myo-Inositol-1,4,5-triphosphate] | 226 and 227.733 and 222.3 | 236 and 220.433 and 234.133 |  | 306.433 and 280.567 and 269.467 |  | 515.9 and 500.567 and 450.3 |  | 18.6 µM | 15.5 µM and 18.6 µM and 21.6 µM | 18.6 ± 3.1 (3) µM and 10.2 ± 1.7 (3) mg/L | 814.5 and 889.4 and 828.767 |  |  |  |  |  |  |  |
| O=P(O)(O)O[C@@H]1[C@@H](O)[C@H](OP(=O)(O)O)[C@@H](OP(=O)(O)O)[C@H](O)[C@@H]1OP(=O)(O)O [IP4, myo-Inositol-2,3,5,6-tetrakisphosphate] | 211 and 218.833 and 216.333 | 225 and 236 and 231.367 |  | 262.033 and 281.067 and 280.633 |  | 466.533 and 430.4 and 481.633 |  | 19.5 µM | 20.1 µM and 19.8 µM and 18.8 µM | 19.5 ± 0.7 (3) µM and 13.2 ± 0.5 (3) mg/L | 774.233 and 614.5 and 810.35 |  |  |  |  |  |  |  |
| O=P(O)(O)O[C@@H]1[C@H](OP(=O)(O)O)[C@H](OP(=O)(O)O)[C@@H](O)[C@H](OP(=O)(O)O)[C@H]1OP(=O)(O)O [IP5, myo-Inositol-1,2,3,5,6-pentakisphosphate] | 220.367 and 229.167 and 217.95 | 240.433 and 226.567 |  | 286.067 and 304.933 and 322.1 | 373.933 | 702.867 and 723.533 and 709.1 |  | 13.2 µM | 14.6 µM and 12.1 µM and 12.9 µM | 13.2 ± 1.3 (3) µM and 10.5 ± 1.0 (3) mg/L |  |  |  |  |  |  |  |  |
| OP(O)(=S)O[C@H]1[C@H](OP(O)(O)=S)[C@@H](OP(O)(O)=S)[C@H](OP(O)(O)=S)[C@@H](OP(O)(O)=S)[C@H]1OP(O)(O)=S [IT6, myo-Inositol hexathiophosphate] | 209.1 and 228.433 and 226.433 | 226.567 and 251.033 and 247.133 |  | 291.533 and 299.233 and 300.133 |  | 577.433 and 598.2 and 571.6 | 12.79 mg/L | 14.4 µM | 14.7 µM and 14.2 µM and 14.3 µM | 14.4 ± 0.3 (3) µM |  |  |  |  |  |  |  |  |
| O=C([O-])CC(O)(CC(=O)[O-])C(=O)[O-].O=C([O-])CC(O)(CC(=O)[O-])C(=O)[O-].[Mg+2].[Mg+2].[Mg+2] [Mg citrat] |  |  |  |  |  |  | 21.44 mg/L | > 100 µM |  |  |  |  |  |  |  |  |  |  |
| O=P(O)(O)OP(=O)(O)O [PPi, sodium pyrophosphate] | 217.433 | 221.633 and 215.733 and 209.467 |  | 255.8 and 265.133 and 242.367 | 287.067 and 306.267 and 274.667 | 364.3 and 363.867 and 345.167 |  | 27.4 µM | 26.6 µM and 25 µM and 30.5 µM | 27.4 ± 2.8 (3) µM and 7.3 ± 0.8 (3) mg/L | 483 and 451.167 |  |  |  |  |  |  |  |
| O[C@H]1[C@H](O)[C@@H](O)[C@H](O)[C@@H](O)[C@H]1O [myo-Inositol, myo-inositol] | 207.8 and 255.6 and 248.233 and 290.55 | 211.367 and 251.867 and 315.75 |  | 222.4 and 274.533 and 249.233 and 297.6 |  | 215.55 and 286.233 and 247.167 and 309.65 | 18.02 mg/L | > 100 µM |  | >100 (4) µM and >18.0 (4) mg/L | 213.1 and 307.8 | 207.8 min and 255.6 min and 248.233 min and 290.55 min | 211.367 min and 251.867 min and 315.75 min | 222.4 min and 274.533 min and 249.233 min and 297.6 min | 215.55 min and 286.233 min and 247.167 min and 309.65 min | 213.1 min and 307.8 min | 291.467 min and 250.833 min | 291.467 and 250.833 |
| magnesium citrate | 196.233 and 242.1 and 288.4 | 190.533 and 253.267 and 289.2 |  | 197.533 and 253.867 and 304.8 |  | 198.933 and 273.433 and 307.3 |  |  |  | >100 (3) µM and >21.4 (3) mg/L |  |  |  |  |  |  |  | 228.767 and 304.4 and 351.8 |
